# Assay results reported in patent publication US20180228799A1, “Treatment for Neurological and Mental Disorders” (PSYCHOGENICS, INC., priority 2008, published 2018).
# Test system: rats
# Test: Radial arm maze, scopolamine-induced working memory deficit
# Type: in vivo
# Settings: scopolamine 0.5 mg/kg IP, FIG. 2
# Method: Several mazes, such as the radial arm maze (RAM) have been adapted to assess working memory in rodents. The RAM consists of eight long runways radiating out in a circle from a central compartment. In the RAM rats learn to retrieve food rewards from all or a sub-set of the arms. Working memory is assessed by measuring entries into previously baited arms within a given trial. […] Hippocampal lesions produce deficits both in adults and in the neonatal hippocampal lesion model of schizophrenia.
# For training, food deprived rats were placed in an enclosed cylinder in the center of the maze for 20 s, prior to being allowed to explore the maze by removing the cylinder. Each radial arm is baited with a food reward. Animals were given a maximum of 5 minutes to retrieve all food rewards. This training continued once daily for three weeks until animals met the performance criteria for successful acquisition of the task.
# Four parameters were recorded to assess the performance of the rat: (1) the number of errors, which is defined as entering an arm that had already been entered, (2) the number of consecutive entries into un-visited arms before the first error occurred (entries to repeat), (3) latency to complete the task, and (4) the total number of arm entries before all food in the eight arms is collected or the maximum session duration is reached. […]
smiles,measurement,value
"CN1[C@@H]2C[C@@H](OC(=O)[C@H](CO)c3ccccc3)C[C@H]1[C@@H]1O[C@@H]12 [scopolamine, reference compound]",Entries to repeat in the radial arm maze compared to baseline,decreased entries to repeat
